Laboratory results published in paper PMC3502418 (2012).

Columns and labels:
[1] = test system: DNA4-G (DNA, mismatch bulge abasic, abasic site (dSpacer, tetrahydrofuran residue) at X, opposite G, flanked by C; position in Figure 1B) ATGGTGCNCGCAGCG/CGCTGCGGGCACCAT; experiment: UV melting at 260 nm; details: 0.1 M phosphate, 1 mM EDTA, pH 8.3 or 7.0 (unclear); 5 µM SG, 5 µM DNA
[2] = test system: DNA1-A (DNA, mismatch bulge abasic, abasic site (dSpacer, tetrahydrofuran residue) at X, opposite A, flanked by T; position in Figure 1B) ATGGTGTNTGCAGCG/CGCTGCAAACACCAT; experiment: UV melting at 260 nm; details: 0.1 M phosphate, 1 mM EDTA, pH 8.3 or 7.0 (unclear); 5 µM SG, 5 µM DNA
[3] = test system: DNA3-T (DNA, mismatch bulge abasic, abasic site (dSpacer, tetrahydrofuran residue) at X, opposite T, flanked by G; position in Figure 1B) ATGGTGGNGGCAGCG/CGCTGCCTCCACCAT; experiment: UV melting at 260 nm; details: 0.1 M phosphate, 1 mM EDTA, pH 8.3 or 7.0 (unclear); 5 µM SG, 5 µM DNA
[4] = test system: DNA2-A (DNA, mismatch bulge abasic, abasic site (dSpacer, tetrahydrofuran residue) at X, opposite A, flanked by A; position in Figure 1B) ATGGTGANAGCAGCG/CGCTGCTATCACCAT; experiment: UV melting at 260 nm; details: 0.1 M phosphate, 1 mM EDTA, pH 8.3 or 7.0 (unclear); 5 µM SG, 5 µM DNA
[5] = test system: mismatched DNA (DNA1, X = T, Y = C) (DNA, mismatch bulge abasic) ATGGTGTTTGCAGCG/CGCTGCACACACCAT; experiment: fluorescence enhancement at 586 nm; details: 0.1 M phosphate, pH 8.3 presumed; 5 µM SG; up to 5 µM DNA; weaker than DNA1-C
[6] = test system: DNA4-C (DNA, mismatch bulge abasic, abasic site (dSpacer, tetrahydrofuran residue) at X, opposite C, flanked by C; position in Figure 1B) ATGGTGCNCGCAGCG/CGCTGCGCGCACCAT; experiment: UV melting at 260 nm; details: 0.1 M phosphate, 1 mM EDTA, pH 8.3 or 7.0 (unclear); 5 µM SG, 5 µM DNA
[7] = test system: DNA1-G (DNA, mismatch bulge abasic, abasic site (dSpacer, tetrahydrofuran residue) at X, opposite G, flanked by T; position in Figure 1B) ATGGTGTNTGCAGCG/CGCTGCAGACACCAT; experiment: UV melting at 260 nm; details: 0.1 M phosphate, 1 mM EDTA, pH 8.3 or 7.0 (unclear); 5 µM SG, 5 µM DNA
[8] = test system: DNA1-C (DNA, mismatch bulge abasic, abasic site (dSpacer, tetrahydrofuran residue) at X, opposite C, flanked by T; position in Figure 1B) ATGGTGTNTGCAGCG/CGCTGCACACACCAT; experiment: fluorescence titration (586 nm), Scatchard; details: 0.1 M phosphate, 1 mM EDTA; pH 8.3 presumed; 1 µM SG; strongest site only
[9] = test system: DNA2-C (DNA, mismatch bulge abasic, abasic site (dSpacer, tetrahydrofuran residue) at X, opposite C, flanked by A; position in Figure 1B) ATGGTGANAGCAGCG/CGCTGCTCTCACCAT; experiment: UV melting at 260 nm; details: 0.1 M phosphate, 1 mM EDTA, pH 8.3 or 7.0 (unclear); 5 µM SG, 5 µM DNA
[10] = test system: DNA1-T (DNA, mismatch bulge abasic, abasic site (dSpacer, tetrahydrofuran residue) at X, opposite T, flanked by T; position in Figure 1B) ATGGTGTNTGCAGCG/CGCTGCATACACCAT; experiment: UV melting at 260 nm; details: 0.1 M phosphate, 1 mM EDTA, pH 8.3 or 7.0 (unclear); 5 µM SG, 5 µM DNA
[11] = test system: DNA3-G (DNA, mismatch bulge abasic, abasic site (dSpacer, tetrahydrofuran residue) at X, opposite G, flanked by G; position in Figure 1B) ATGGTGGNGGCAGCG/CGCTGCCGCCACCAT; experiment: UV melting at 260 nm; details: 0.1 M phosphate, 1 mM EDTA, pH 8.3 or 7.0 (unclear); 5 µM SG, 5 µM DNA

- ΔT [1]: 2.4 °C
- ΔT [2]: 1.9 °C
- ΔT [3]: 5.7 °C
- ΔT [4]: 3.0 °C
- binding [5]: yes
- ΔT [6]: 5.2 °C
- ΔT [7]: 1.9 °C
- binding constant [8]: 1.7±0.15×10^7 M^−1
- ΔT [9]: 5.4 °C
- ΔT [10]: 3.8 °C
- ΔT [11]: 2.4 °C
SMILES: C[n+]1cc2c3c(ccc2c2ccc4cc5c(cc4c21)OCO5)OCO3
